According to patent US9079876B2, “Imidazole derivatives and preparation method and use thereof” (Beijing Orbiepharm Co., Ltd., priority 2010, dated 2015):

What was measured:
[1] = molecular target: T1, COX-2 (Canis lupus familiaris, UniProt Q8SPQ9); assay: Dog whole blood in vitro activity assay, COX-2; type: cell-based, beagle dog; settings: for IC50: read-out: IC50 (μg/mL) COX-2 (converted)
T1 construct: in vitro activity study using beagle dog whole blood was conducted; from tissue; host or cells: beagle dog whole blood, stimulated with LPS (by the same method as for human blood)
T1 sequence (Q8SPQ9 18-604): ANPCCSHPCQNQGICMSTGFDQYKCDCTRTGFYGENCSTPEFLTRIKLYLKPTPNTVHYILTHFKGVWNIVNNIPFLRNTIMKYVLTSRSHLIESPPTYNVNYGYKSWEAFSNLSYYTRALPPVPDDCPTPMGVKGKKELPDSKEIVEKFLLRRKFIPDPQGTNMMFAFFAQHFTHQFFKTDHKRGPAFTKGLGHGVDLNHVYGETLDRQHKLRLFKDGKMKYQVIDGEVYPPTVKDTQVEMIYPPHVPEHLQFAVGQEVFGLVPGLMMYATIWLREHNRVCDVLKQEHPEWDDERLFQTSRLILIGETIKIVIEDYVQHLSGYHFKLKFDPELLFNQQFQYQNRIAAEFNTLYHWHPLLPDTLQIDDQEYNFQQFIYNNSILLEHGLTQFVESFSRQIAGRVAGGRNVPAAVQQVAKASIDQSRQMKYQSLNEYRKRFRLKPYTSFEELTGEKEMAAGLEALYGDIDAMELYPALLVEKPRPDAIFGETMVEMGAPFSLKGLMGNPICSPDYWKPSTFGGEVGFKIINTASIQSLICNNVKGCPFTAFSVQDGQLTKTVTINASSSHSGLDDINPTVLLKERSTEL

[2] = molecular target: T2, cyclooxygenase-1 (COX-1 enzyme) (Homo sapiens, UniProt P23219); assay: Human whole blood in vitro activity assay, COX-1 (TXB2 by EIA); type: cell-based; settings: read-out: IC50 (μg/mL) COX-1 (converted)
T2 construct: from tissue; host or cells: human whole blood without heparin (platelets) from healthy volunteers
T2 sequence (P23219 24-599): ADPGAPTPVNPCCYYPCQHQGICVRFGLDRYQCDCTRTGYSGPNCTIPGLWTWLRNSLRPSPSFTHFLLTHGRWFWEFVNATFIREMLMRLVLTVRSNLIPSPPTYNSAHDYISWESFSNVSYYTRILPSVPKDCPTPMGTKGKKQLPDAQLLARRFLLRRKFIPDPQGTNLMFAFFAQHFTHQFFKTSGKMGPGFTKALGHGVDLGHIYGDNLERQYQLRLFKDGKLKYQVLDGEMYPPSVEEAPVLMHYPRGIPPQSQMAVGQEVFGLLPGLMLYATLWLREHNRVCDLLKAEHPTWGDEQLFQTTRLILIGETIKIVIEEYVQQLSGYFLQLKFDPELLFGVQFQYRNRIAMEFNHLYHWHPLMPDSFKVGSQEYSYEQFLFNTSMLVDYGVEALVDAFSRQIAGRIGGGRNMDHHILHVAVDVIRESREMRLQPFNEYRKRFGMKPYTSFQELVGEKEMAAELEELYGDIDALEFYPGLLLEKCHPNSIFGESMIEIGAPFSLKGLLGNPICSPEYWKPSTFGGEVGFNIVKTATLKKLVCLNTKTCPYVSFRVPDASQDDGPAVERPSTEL
Description: (§1) Human whole blood in vitro activity study: inhibition of activity of cyclooxygenase-1 (COX-1 enzyme) and cyclooxygenase-2 (COX-2 enzyme) in human blood. […] The blood samples were divided into two parts: one was used for detecting COX-1 enzyme activity, and the other was used for detecting COX-2 enzyme activity. The compounds were dissolved in DMSO, and were prepared in advance into 2 μL solutions in respective concentrations of 500, 50, 5, 0.5, 0.05, 0.005, 0.0005 μg/mL. 200 μL whole blood without heparin was added in the tubes containing the compounds, and then incubated at 37° C. for 1 hour. The activity of COX-1 enzyme was detected by determining the amount of thromboxane B2 (TXB2) synthesized by platelet using an EIA kit. Samples tested without the compounds were negative controls. For COX-2, 200 μL whole blood with heparin was added in the tubes containing the compounds and in the tubes containing 10 μg/mL LPS. LPS control and blank control with solvent only were used respectively for determining the maximum value and the background value of the PGE2 produced therefrom. The samples were incubated at 37° C. for 24 hours, and then centrifuged to collect serum/plasma, which was stored at −80° C. for detection by an EIA kit. The EIA kit of Cayman Company was used, the amounts of TXB2 and PGE2 were determined in accordance to the manufacturer's instructions, and the activities of COX-1 and COX-2 were tested respectively.

[3] = molecular target: T3, cyclooxygenase-2 (COX-2 enzyme) (Homo sapiens, UniProt P35354); assay: Human whole blood in vitro activity assay, COX-2 (LPS-induced PGE2 by EIA); type: cell-based; settings: for IC50: LPS, PGE2, read-out: IC50 (μg/mL) COX-2 (converted)
T3 construct: from tissue; host or cells: heparinised human whole blood from healthy volunteers, stimulated with LPS
T3 sequence (P35354 18-604): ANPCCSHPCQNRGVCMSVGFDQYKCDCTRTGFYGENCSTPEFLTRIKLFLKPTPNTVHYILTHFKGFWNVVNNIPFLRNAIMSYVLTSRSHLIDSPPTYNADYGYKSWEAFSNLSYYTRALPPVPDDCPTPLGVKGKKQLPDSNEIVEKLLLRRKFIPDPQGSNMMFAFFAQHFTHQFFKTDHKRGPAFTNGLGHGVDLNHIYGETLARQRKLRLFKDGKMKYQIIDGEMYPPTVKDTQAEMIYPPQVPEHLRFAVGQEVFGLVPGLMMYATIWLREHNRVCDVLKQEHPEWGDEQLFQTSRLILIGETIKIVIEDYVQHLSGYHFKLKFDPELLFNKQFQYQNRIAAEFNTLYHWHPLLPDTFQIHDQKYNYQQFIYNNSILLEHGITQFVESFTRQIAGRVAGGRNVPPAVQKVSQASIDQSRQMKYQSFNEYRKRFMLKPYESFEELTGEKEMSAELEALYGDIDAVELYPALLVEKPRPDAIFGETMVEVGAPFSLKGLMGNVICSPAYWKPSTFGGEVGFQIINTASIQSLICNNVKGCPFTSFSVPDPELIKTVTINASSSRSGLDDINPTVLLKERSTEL
Description: as §1

[4] = Pharmacokinetic study, intravenous, rats; type: in vivo; settings: male SD rats, IV 2 mg/kg
Description: Cimicoxib (cimicoxib) was IV administrated to male SD rats in vivo [2 mg/kg, 2 mg/ml, menstruum: DMSO/PEG 400/30% HP-b-CD ([…])], T1/2 was 3.20 h. The half-life of compound 1 was longer than cimicoxib.

[5] = molecular target: T4, COX-1 (Canis lupus familiaris, UniProt Q8HZR1); assay: Dog whole blood in vitro activity assay, COX-1; type: cell-based, beagle dog; settings: read-out: IC50 (μg/mL) COX-1 (converted)
T4 construct: in vitro activity study using beagle dog whole blood was conducted; from tissue; host or cells: beagle dog whole blood (platelets, by the same method as for human blood)
T4 sequence (Q8HZR1 28-603): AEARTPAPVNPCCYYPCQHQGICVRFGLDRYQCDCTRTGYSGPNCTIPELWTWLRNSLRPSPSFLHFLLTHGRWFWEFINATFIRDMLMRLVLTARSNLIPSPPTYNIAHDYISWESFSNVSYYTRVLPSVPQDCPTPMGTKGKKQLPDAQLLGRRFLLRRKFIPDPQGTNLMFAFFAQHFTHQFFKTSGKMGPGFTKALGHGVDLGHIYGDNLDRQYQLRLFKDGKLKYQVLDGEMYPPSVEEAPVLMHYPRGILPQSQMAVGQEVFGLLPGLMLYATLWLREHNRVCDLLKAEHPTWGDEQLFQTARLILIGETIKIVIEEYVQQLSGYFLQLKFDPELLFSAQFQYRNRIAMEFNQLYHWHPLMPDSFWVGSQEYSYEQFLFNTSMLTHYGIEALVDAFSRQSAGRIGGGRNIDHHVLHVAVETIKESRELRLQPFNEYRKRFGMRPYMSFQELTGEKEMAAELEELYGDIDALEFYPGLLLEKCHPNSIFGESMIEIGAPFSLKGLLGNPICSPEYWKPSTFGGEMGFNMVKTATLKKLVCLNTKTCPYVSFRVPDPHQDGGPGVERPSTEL

Row | SMILES | IC50COX-1/IC50COX-2 [1] | IC50 [1] | IC50 [2] | IC50COX-1/IC50COX-2 [3] | IC50 [3] | t1/2 [4] | AUC(0-t) ([4]; rat, in vivo) | C0 ([4]; rat, in vivo) | clearance ([4]; rat, in vivo) | half-life ([4]; rat, in vivo, 2 mg/ml, DMSO/PEG 400/30% HP-b-CD) | Vd ([4]; rat, in vivo, read-out: Vss) | IC50 [5]
1 | CS(=O)(=O)c1ccc(-n2cnc(Cl)c2-c2ccc(F)cc2)nc1 [Compound 2, 2-(4-chloro-5-(4-fluorophenyl)-1H-imidazol-1-yl)-5-(methylsulfonyl)pyridine] | 21.4 | 2.62 µM | 11.2 µM | 21.8 | 0.512 µM | – | – | – | – | – | – | 55.9 µM
2 | Cc1ccc(-c2c(Cl)ncn2-c2ccc(S(C)(=O)=O)cn2)cc1 [Compound 3, 2-(4-chloro-5-p-tolyl-1H-imidazol-1-yl)-5-(methylsulfonyl)pyridine] | 18.8 | 1.61 µM | 19.7 µM | 76.2 | 0.259 µM | – | – | – | – | – | – | 30.2 µM
3 | COc1ccc(-c2c(Cl)ncn2-c2ccc(S(C)(=O)=O)nc2)cc1 [Compound 9, 5-(4-chloro-5-(4-methoxyphenyl)-1H-imidazol-1-yl)-2-(methylsulfonyl)pyridine] | 239.6 | 2.31 µM | 62.5 µM | 247.2 | 0.253 µM | – | – | – | – | – | – | 553 µM
4 | CS(=O)(=O)c1ccc(-n2cnc(Cl)c2-c2cccnc2)cn1 [Compound 11, 5-(4-chloro-5-(pyridin-3-yl)-1H-imidazol-1-yl)-2-(methylsulfonyl)pyridine] | – | – | > 1490 µM | >12.6 | 118 µM | – | – | – | – | – | – | –
5 | CS(=O)(=O)c1ccc(-n2cnc(Cl)c2-c2ccc(F)cc2)cn1 [Compound 12, 5-(4-chloro-5-(4-fluorophenyl)-1H-imidazol-1-yl)-2-(methylsulfonyl)pyridine] | – | – | 209 µM | 135.9 | 1.54 µM | – | – | – | – | – | – | –

Now from value to molecule:

Row | IC50COX-1/IC50COX-2 [1] | IC50 [1] | IC50 [2] | IC50COX-1/IC50COX-2 [3] | IC50 [3] | t1/2 [4] | AUC(0-t) ([4]; rat, in vivo) | C0 ([4]; rat, in vivo) | clearance ([4]; rat, in vivo) | half-life ([4]; rat, in vivo, 2 mg/ml, DMSO/PEG 400/30% HP-b-CD) | Vd ([4]; rat, in vivo, read-out: Vss) | IC50 [5] | SMILES
6 | 9.5 | 1.65 µM | 4.16 µM | 8.8 | 0.471 µM | 3.20 ± 0.80 h | 12000 ± 4400 ng·h/mL | 1980 ± 140 ng/mL | 2.99 ± 0.92 mL/min/kg | 3.2 h | 0.773 ± 0.145 L/kg | 15.6 µM | COc1ccc(-c2c(Cl)ncn2-c2ccc(S(N)(=O)=O)cc2)cc1F [Cimicoxib, reference compound]
7 | – | – | 185 µM | 58.8 | 3.14 µM | – | – | – | – | – | – | – | COc1ccc(-c2c(Cl)ncn2-c2ccc(S(C)(=O)=O)nc2)cc1F [Compound 10, 5-(4-chloro-5-(3-fluoro-4-methoxyphenyl)-1H-imidazol-1-yl)-2-(methylsulfonyl)pyridine]
